In PMC11597048, “M2e-Derived Peptidyl and Peptide Amphiphile Micelles as Novel Influenza Vaccines” (Pharmaceuticals, 2024):

Legend:
[1] = Transmission electron microscopy of micelles; format: physicochemical; settings: 20 μM peptide or PA with or without 2.22 μM Pam2CSK4 (90/10) in PBS, Nano-W negative stain
Protocol: Solutions of 20 μM peptide or PA with or without 2.22 μM Pam2CSK4 were prepared in PBS from which 5 μL was pipetted onto a carbon-coated copper transmission electron microscopy (TEM) grid and incubated for 3–5 min before excess solution was wicked away using filter paper. Then, 5 μL Nano-W (2% methylamine tungstate) was pipetted on the grid and incubated for 3–5 min before being removed by wicking. Grids were imaged using a JEOL JEM-1400 Transmission Electron Microscope (Tokyo, Japan) at 15,000× and 25,000× magnification. Micrographs of peptide or PA were compared against reference micrographs of Nano-W with or without PBS to ensure proper identification of micellar structures.

[2] = tested on: bone marrow-derived dendritic cells (BMDCs); experiment: BMDC cytokine secretion (sandwich ELISA of supernatant); format: cell-based, BALB/c mice; settings: 24 h treatment, 0.2 μM Pam2CSK4, supernatant ELISA
Protocol: Bone marrow was harvested from the femurs and tibias of 4-month-old BALB/c mice and red blood cells were lysed using ammonium-chloride-potassium (ACK) lysing buffer. Bone marrow cells were cultured in complete RPMI media (i.e., 10% FBS, 100 U/mL penicillin, 100 μg/mL streptomycin, and 50 μM β-mercaptoethanol) with 20 ng/mL granulocyte-macrophage colony-stimulating factor (GM-CSF) to promote differentiation into bone marrow-derived dendritic cells (BMDCs). After 10 days, BMDCs were plated in untreated 24-well plates and cultured with peptide or PA for 24 h. Supernatants were collected and stored at −20 °C for later use. BMDCs were harvested and processed for flow cytometry analysis. More specifically, cells were removed from the plate, blocked with Trustain FcX anti-mouse CD16/32 antibody (BioLegend), then stained with phycoerythrin-Cyaninine7 (PE-Cy7) anti-mouse CD11c (BioLegend), fluorescein isothiocyanate (FITC) anti-mouse CD40 (BioLegend), and allophycocyanin (APC) anti-mouse MHC II (BioLegend) before being fixed with 4% para-formaldehyde. Cells were analyzed on a BD LSR Fortessa Flow Cytometer (Franklin Lakes, NJ, USA) within 48 h after fixation. Events were gated according to the strategy shown in Figure S2, with viable samples having a “valid cells” gate of at least 45% of the total events. […]

## Pam2CSK4
[1]
  Micelle morphology (TEM): mostly small spherical micelles
[2]
  IL-12/IL-23 (p40) secretion: higher production
  TNF-α secretion: higher production
